As usually defined, the pKi is the Ki on a negative log10 scale, so that one unit is a factor of ten.

This is an account of results in patent publication US5221675A, “Aza-spirocyclic compounds that enhance cholinergic neurotransmission” (Abbott Laboratories, priority 1991, dated 1993).

pKi: −log10 of the molar value.

The subject of one data set is male Sprague-Dawley rats. The data set is described as follows: Mean arterial pressure, resting CBF and basal forebrain-elicited cortical CBF (laser-Doppler flowmetry). The class given is in vivo, rat. As for the experimental part: General Surgery for CBF Measurement--Methods for surgical preparation of rats for electrical stimulation of brain and measurement of rCBF have been previously described (Nakai et al., Am. J. Physiol. 1982, 243:226) and are summarized below.
Studies are conducted on male Sprague-Dawley rats that are maintained in a thermally controlled (26°-27° C.) light-cycled (07.00 hour on-019.00 hour off) environment, fed standard rat chow and given water ad libitum. Anesthesia is induced with halothane (3.5%; balance 02) delivered through a nose mask and maintained at 2% during the initial surgery. Thin-wall vinyl catheters (o.d.=0.03 inch) are placed in each femoral artery and vein, and the trachea is cannulated.
Animals are subsequently co-anesthetized with urethane (1.5 g/kg, s.c.) and placed in a stereotaxic frame with the head positioned so that the floor of the IVth ventricle was horizontal (incisor bar position: -11 mm.). After connecting the tracheal cannula to a small-animal respirator, the animals are paralyzed with d-tubocurarine (0.6 mg/kg/h, i.m.), and ventilated (80 cpm) with 100% 02. Arterial pressure (AP) and heart rate (HR) are continuously monitored through one of the arterial catheters connected to a Statham P23Db transducer that is coupled to a chart recorder. The level of anesthesia during surgery or subsequent experimental testing is assessed by the AP response to tail pinch, with increasing levels of arousal giving rise to irregular AP readings. Booster doses of urethane (250 mg/kg, s.c.) are given as needed.
Bilateral craniotomies (approximately 4 mm×11 mm) are performed overlying the frontoparietal cortices taking care to leave the dura intact. Halothane is delivered at a reduced rate of 1% during cranial surgery and discontinued afterward. A small volume (about 0.2 ml) of arterial blood is sampled after completion of all surgery for measurement of PO2, PCO2 and pH by a blood gas analyzer. Arterial blood gases are maintained so that PO2 was greater than 100 mm Hg, PCO2 =33-38 mm Hg, and pH=7.35-7.45. Maintaining these values is accomplished by adjusting the stroke volume of the ventilator. Once appropriate physiological parameters are obtained (approximately 30 min), the experimental protocol is initiated.
Electrical Stimulation of the Basal Forebrain (BF)--The BF is stimulated with cathodal current delivered through a stainless steel concentric bipolar electrode ([…]) made by Rhodes Medical Instruments (Model SNEX-100). Electrical pulses are generated by a square wave stimulator (Grass, Model S-88) and constant current is passed through a photoelectric stimulus-isolation unit (Grass, Model PSIU6). The stimulus current is measured on an oscilloscope by continuously displaying the voltage drop across a 10-ohm resistor.
The procedure for eliciting an increased cortical CBF response requires the stereotaxic placement of the stimulating electrode into the BF. For positioning, the electrode is inclined posteriorly to 18 degrees, and the stereotaxic coordinates used were 5.0 mm posterior to, and 2.6 mm lateral to bregma (stereotaxic zero reference point). […] These parameters have been shown previously to elicit maximal increases in cortical CBF (Arneric, Excerpta Medica International Congress Series, Vol. 869:381, 1989). The region of the BF that selectively affects cortical CBF is restricted, with electrode movements of 0.5 mm dorsal or ventral to this site eliciting potent vasodepressor responses in addition to the increases in CBF. […] When CBF increases of approximately 100% or greater are repeatedly obtained in the absence of significant changes in AP (<10 mm Hg) or HR (<10 beats/min.), and when the perfusion rate is stable in the absence of BF stimulation, the experimental testing is started.
CBF Measurement with Laser--Dopler Flowmetry (LDF)--The principles and technical aspects of LDF are presented in detail elsewhere (Bonner et al., Appl. Opt. 1981, 20:2097; Stern et al., Am. J. Physiol. 1977, 232:H441). […]

Data set [1] concerns the target neuronal nicotinic cholinergic receptor. Put plainly: [3H]-MCC binding to nicotinic receptors in whole rat brain membranes. As to conditions: for pKi: Table 3, [3H]-MCC, rat brain membranes, 4° C., read-out: Nic Ki (binding to the nicotinic receptor); for Nic % Enhancement @ Max. Effect: at 0.0001 (mM) as printed; for Nic Conc. @ Max. Effect: concentration giving maximal enhancement of [3H]-MCC binding; for Affinity for M1/M2 muscarinic and nicotinic neuronal binding sites: muscarinic (M1 or M2) and nicotinic; for Affinity for M1/M2 muscarinic and nicotinic neuronal binding sites / Binding of other nicotinic ligands to the neuronal nicotinic receptor: words. As for the experimental part: Binding of [^3 H]methylcarbamylcholine ([^3 H]-MCC) to nicotinic receptors is accomplished using crude synaptic membranes prepared from whole rat brain (Snyder and Enna, Brain Res. 1975, 100:81). Washed membranes are stored at -80° C. prior to use. Frozen aliquots are slowly thawed and resuspended in 20 volumes of buffer (containing: 120 mM NaCl, 5 mM KCl, 2 mM MgCl2, 2 mM CaCl2, and 50 mM Tris-Cl, pH 7.4 @4° C.). After centrifuging at 20K×9 for 15 minutes, the pellets are resuspended in 30 volumes of buffer. Homogenate ([…]) is added to triplicate tubes containing concentrations of test compound and [^3 H]-MCC (3 nM) in a final volume of […]. Samples are incubated for 60 minutes at 4° C., then rapidly filtered through Whatman GF/B filters presoaked in 0.5% polyethylimine using 3×4 ml of ice-cold buffer. The filters are counted in 4 mL of Ecolume (ICN). Nonspecific binding is determined in the presence of 10 […] and values were expressed as a percentage of total binding. IC50 values are determined with the ALLFIT curve-fitting program and IC50 values are converted to Ki values using the Cheng and Prusoff correction, (Ki=IC50 /(1+[ligand]/Kd ligand). Alternatively, data are expressed as a percentage of the total specific binding.

The next data set has as its target T1, M1 muscarinic receptor (Rattus norvegicus, UniProt P08482).
T1 construct: from tissue; host or cells: adult rat fronto-parietal cortex membranes (homogenate)
T1 sequence (P08482 1-460): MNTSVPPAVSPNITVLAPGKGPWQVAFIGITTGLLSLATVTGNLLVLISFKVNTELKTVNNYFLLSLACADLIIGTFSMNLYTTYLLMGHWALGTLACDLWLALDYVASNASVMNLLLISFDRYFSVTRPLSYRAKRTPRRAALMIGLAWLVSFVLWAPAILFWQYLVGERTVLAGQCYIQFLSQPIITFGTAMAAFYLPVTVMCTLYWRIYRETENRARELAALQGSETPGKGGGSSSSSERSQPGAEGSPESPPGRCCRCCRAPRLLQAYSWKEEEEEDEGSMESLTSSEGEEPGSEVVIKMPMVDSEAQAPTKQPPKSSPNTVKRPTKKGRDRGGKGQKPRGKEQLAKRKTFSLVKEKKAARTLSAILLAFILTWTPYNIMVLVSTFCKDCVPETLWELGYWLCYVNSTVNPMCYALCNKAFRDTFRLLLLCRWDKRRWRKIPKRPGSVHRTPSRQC
The data set is described as follows: Competition with [3H]pirenzepine at cortical M1 muscarinic receptors. The class given is binding. The following applies: Table 3; read-out: M1 Ki.

Another data set has as its target M2 muscarinic receptor (Rattus norvegicus, UniProt P10980). The class given is binding. As to conditions: read-out: M2 Ki; Table 3.
The conditions of data set [2]: in vivo; cited from earlier work.
Data set [3] deals with Rat striatal muscarinic receptors. Put plainly: Agonist intrinsic activity: inhibition of forskolin-activated [3H]cAMP in dissociated rat striatum. The class given is cell-based. As to conditions: selective muscarinic antagonist.
Text: Rat striatal muscarinic receptors are coupled to the inhibition of the conversion of adenosine triphosphate (ATP) to cyclic adenosine monophosphate (cAMP). […] The ATP stores in dissociated rat striatum were labeled with [^3 H]adenine and [^3 H]-cAMP levels were elevated with 10 um forskolin.
The mark [4] stands for this setting: 0.01 mg/kg, iv, mean of three experiments.

Sequence of M2 muscarinic receptor (P10980 whole entry): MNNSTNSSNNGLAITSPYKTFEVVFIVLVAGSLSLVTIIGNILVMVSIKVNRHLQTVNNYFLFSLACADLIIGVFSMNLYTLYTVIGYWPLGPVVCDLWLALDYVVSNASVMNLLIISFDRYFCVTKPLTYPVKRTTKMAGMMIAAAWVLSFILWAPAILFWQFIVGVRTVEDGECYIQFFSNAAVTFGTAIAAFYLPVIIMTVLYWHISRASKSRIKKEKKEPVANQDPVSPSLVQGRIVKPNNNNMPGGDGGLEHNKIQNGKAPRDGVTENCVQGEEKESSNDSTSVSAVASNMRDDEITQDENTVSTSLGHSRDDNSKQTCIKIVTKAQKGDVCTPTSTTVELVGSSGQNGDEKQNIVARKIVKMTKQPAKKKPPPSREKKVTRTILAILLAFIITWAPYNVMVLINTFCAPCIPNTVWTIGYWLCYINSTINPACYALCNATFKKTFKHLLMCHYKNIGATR

As for `CN1C(=O)N(c2ccccc2)C2(CCNCC2)C1=O.Cl` [Example 3, 3-Methyl-1-phenyl-1,3,8-triazaspiro[4,5]decane-2,4-dione hydrochloride], in the data set with male Sprague-Dawley rats (setting [4]), the “BF-Elicited CBF Response, % Change from Pre-Drug CONTROL” value was “+39%”; the “MAP, % Change from Pre-Drug CONTROL” value is on record as “+5%”; the “Resting CBF, % Change from Pre-Drug CONTROL” value is “+23%”. Moreover, in the data set with male Sprague-Dawley rats (0.01-10.0 mg/kg iv), the “Effects on MAP” value was “No remarkable effects on MAP”. Also, in the data set on male Sprague-Dawley rats (iv), the “Effects on blood pressure” value is “no overt effects on blood pressure”. Besides, the “Resting CBF and BF-elicited CBF response” value in the data set on male Sprague-Dawley rats (low concentrations, iv, words) is “effective in enhancing resting CBF and the BF-elicited CBF response”. Moreover, in data set [1], the negative-log Ki (pKi) was less than 4.00; the “Nic % Enhancement @ Max. Effect” value was “+42%”; the “Nic Conc. @ Max. Effect” value turned out to be 0.0001 mM; the “Affinity for M1/M2 muscarinic and nicotinic neuronal binding sites” value was “little affinity”. The “Binding of other nicotinic ligands to the neuronal nicotinic receptor” value in data set [1] is on record as “potently enhance the binding of other nicotinic ligands”. Moreover, the pKi on M1 muscarinic receptor was less than 4.00. The pKi on M2 muscarinic receptor is less than 4.00.
As to `CN1CCC2(CC1)C(=O)N(C)C(=O)N2c1ccccc1` [Example 4, 3,8-Dimethyl-1-phenyl-1,3,8-triazaspiro[4,5]decane-2,4-dione], in data set [1], the pKi was less than 4.00; the “Nic % Enhancement @ Max. Effect” value was “+33%”; the “Nic Conc. @ Max. Effect” value was 0.0001 mM; the “Affinity for M1/M2 muscarinic and nicotinic neuronal binding sites” value is reported as “little affinity”. Also, the “Binding of other nicotinic ligands to the neuronal nicotinic receptor” value in data set [1] is “potently enhance the binding of other nicotinic ligands”. Moreover, the pKi at M1 muscarinic receptor is 4.55. At M2 muscarinic receptor, the negative logarithm of the Ki (pKi) was less than 4.00.
Turning to `COC(=O)C1=CCCN(C)C1` [arecoline], the Pharmacokinetics entry in data set [2] is “unfavorable pharmacokinetics”.
In the case of `CN1[C@@H]2CC[C@H]1C[C@@H](OC(=O)C(CO)c1ccccc1)C2` (some centres unmarked) [atropine, reference compound], the “Blockade of all agonist responses” value in data set [3] was “fully blocked”.
With `C[N+](C)(C)CCOC(N)=O` [carbachol], in data set [2], the CNS penetration entry is given as “poor CNS penetration”.
